Results filed as inconclusive are left out.
Tested on: HRAS cells, caspase 3/7 apoptosis luminescence, multiple timepoints
Experiment: caspase 3/7 apoptosis readout in HRAS cells, mechanism study for HRAS target identification, cell-based, caspase 3/7 luminescence, plate reader, dry powder (AID 720625)

COc1ccc(N(C(=O)CCl)C(C(=O)NCCc2ccccc2)c2cccs2)cc1Cl (centres undefined) was tested. Which AC40 did it give?
Its AC40 is 7.66 µM.

And the AC40 (measured here: timepoint 1)?
Its AC40 is 22.2 µM.

And the AC40 (measured here: timepoint 2)?
Its AC40 is 0.177 µM.

What about the AC40 (measured here: timepoint 3) of the same compound?
The AC40 was 0.551 µM.

Reference: PubChem BioAssay AID720625 (Broad Institute, 2013)
